The text below walks through data of ChEMBL document CHEMBL4411300 (Eur J Med Chem, 2019).

Each structure is given as a SMILES string. The source made the active and inactive calls. The rule behind the calls is not given here.

Data set [1] is described as follows: Cardiotoxicity in Balb/c mouse infected with Trypanosoma cruzi MHOM/Pe/2011/Arequipa DTU 5 trypomastigotes assessed as decrease in serum LDH level at 20 mg/kg, po once daily for 5 consecutive days starting from day 10 post infection measured on day 16 post infection by biochemical analysis relative to control. The format is toxicity, organism-based. Also on record: scale not given: the % may be the effect or the level left. To be noted: in vivo.

The test system of data set [2] is Trypanosoma cruzi. The data set is described as follows: Antitrypanosomal activity against Trypanosoma cruzi MHOM/Pe/2011/Arequipa DTU 5 trypomastigotes infected in Balb/c mouse assessed as parasite-free lungs at 20 mg/kg, po pretreated once daily for 5 consecutive days starting from day 75 post infection followed by cyclophosphamide-induced immunosuppression on day 100 post infection every 4 days for a maximum of 3 doses measured on day 127 post infection by PCR method. The format is functional, organism-based.

The nature of data set [3]: Hepatotoxicity in Balb/c mouse infected with Trypanosoma cruzi MHOM/Pe/2011/Arequipa DTU 5 trypomastigotes assessed as decrease in alkaline phosphatase level at 20 mg/kg, po once daily for 5 consecutive days starting from day 10 post infection measured on day 127 post infection by biochemical analysis relative to control. The format is toxicity, organism-based. The arrangement: scale not given: the % may be the effect or the level left. Conditions: in vivo.

Data set [4] can be described thus: Hepatotoxicity in Balb/c mouse infected with Trypanosoma cruzi MHOM/Pe/2011/Arequipa DTU 5 trypomastigotes assessed as change in total bilirubin level at 20 mg/kg, po once daily for 5 consecutive days starting from day 75 post infection measured on day 127 post infection (reference value: 0.2 mg/dl). The format is toxicity, organism-based. Conditions: in vivo.

Data set [5] has as its system Trypanosoma cruzi. Kind of data set: Antitrypanosomal activity against Trypanosoma cruzi MHOM/Pe/2011/Arequipa DTU 5 trypomastigotes infected in Balb/c mouse assessed as parasite-free heart at 20 mg/kg, po pretreated once daily for 5 consecutive days starting from day 75 post infection followed by cyclophosphamide-induced immunosuppression on day 100 post infection every 4 days for a maximum of 3 doses measured on day 127 post infection by PCR method. The format is functional, organism-based.

Data set [6] is described as follows: Hepatotoxicity in Balb/c mouse infected with Trypanosoma cruzi MHOM/Pe/2011/Arequipa DTU 5 trypomastigotes assessed as decrease in ratio of serum AST to GOT level at 20 mg/kg, po once daily for 5 consecutive days starting from day 75 post infection measured on day 127 post infection relative to control. The format is toxicity, organism-based. Also on record: scale not given: the % may be the effect or the level left. Conditions: in vivo.

The subject of data set [7] is Trypanosoma cruzi. Kind of data set: Antitrypanosomal activity against Trypanosoma cruzi MHOM/Pe/2011/Arequipa DTU 5 trypomastigotes infected in Balb/c mouse assessed as parasite-free brain at 20 mg/kg, po pretreated once daily for 5 consecutive days starting from day 75 post infection followed by cyclophosphamide-induced immunosuppression on day 100 post infection every 4 days for a maximum of 3 doses measured on day 127 post infection by PCR method. The format is functional, organism-based.

For data set [8], the system named is Trypanosoma cruzi. Kind of data set: Antitrypanosomal activity against Trypanosoma cruzi MHOM/Pe/2011/Arequipa DTU 5 trypomastigotes infected in Balb/c mouse assessed as parasite-free oesophagus at 20 mg/kg, po pretreated once daily for 5 consecutive days starting from day 75 post infection followed by cyclophosphamide-induced immunosuppression on day 100 post infection every 4 days for a maximum of 3 doses measured on day 127 post infection by PCR method. The format is functional, organism-based.

For data set [9], the system named is Trypanosoma cruzi. The data set is described as follows: Antitrypanosomal activity against Trypanosoma cruzi MHOM/Pe/2011/Arequipa DTU 5 trypomastigotes infected in Balb/c mouse assessed as parasite-free stomach at 20 mg/kg, po pretreated once daily for 5 consecutive days starting from day 75 post infection followed by cyclophosphamide-induced immunosuppression on day 100 post infection every 4 days for a maximum of 3 doses measured on day 127 post infection by PCR method. The format is functional, organism-based.

Data set [10] has as its system Trypanosoma cruzi. Kind of data set: Antitrypanosomal activity against Trypanosoma cruzi MHOM/Pe/2011/Arequipa DTU 5 trypomastigotes infected in Balb/c mouse assessed as reduction in parasitaemia level at 20 mg/kg, po once daily for 5 consecutive days starting from day 10 post infection measured on day 40 post infection by Neubauer chamber method. The format is functional, organism-based.

A short description of data set [11]: Hepatotoxicity in Balb/c mouse infected with Trypanosoma cruzi MHOM/Pe/2011/Arequipa DTU 5 trypomastigotes assessed as change in alkaline phosphatase level at 20 mg/kg, po once daily for 5 consecutive days starting from day 75 post infection measured on day 81 post infection (reference value: 167 U/L). The format is toxicity, organism-based. To be noted: in vivo.

A short description of data set [12]: Hepatotoxicity in Balb/c mouse infected with Trypanosoma cruzi MHOM/Pe/2011/Arequipa DTU 5 trypomastigotes assessed as increase in ratio of serum AST to GOT level at 20 mg/kg, po once daily for 5 consecutive days starting from day 75 post infection measured on day 81 post infection by biochemical analysis relative to control. The format is toxicity, organism-based. To be noted: in vivo.

The nature of data set [13]: Nephrotoxicity in Balb/c mouse infected with Trypanosoma cruzi MHOM/Pe/2011/Arequipa DTU 5 trypomastigotes assessed as decrease in serum urea level at 20 mg/kg, po once daily for 5 consecutive days starting from day 10 post infection measured on day 127 post infection relative to control. The format is toxicity, organism-based. Also on record: scale not given: the % may be the effect or the level left. Conditions: in vivo.

Data set [14] in a line: Cardiotoxicity in Balb/c mouse infected with Trypanosoma cruzi MHOM/Pe/2011/Arequipa DTU 5 trypomastigotes assessed as change in serum LDH level at 20 mg/kg, po once daily for 5 consecutive days starting from day 75 post infection measured on day 127 post infection (reference value: 6679 U/L). The format is toxicity, organism-based. To be noted: in vivo.
A short description of data set [15]: Nephrotoxicity in Balb/c mouse infected with Trypanosoma cruzi MHOM/Pe/2011/Arequipa DTU 5 trypomastigotes assessed as serum uric acid level at 20 mg/kg, po once daily for 5 consecutive days starting from day 75 post infection measured on day 127 post infection (reference value: 4.8 mg/dl). The format is toxicity, organism-based. Conditions: in vivo.
Data set [16] is described as follows: Cardiotoxicity in Balb/c mouse infected with Trypanosoma cruzi MHOM/Pe/2011/Arequipa DTU 5 trypomastigotes assessed as change in ratio of creatine kinase in muscle to brain at 20 mg/kg, po once daily for 5 consecutive days starting from day 75 post infection measured on day 81 post infection (reference value: 751 U/L). The format is toxicity, organism-based. Conditions: in vivo.

The nature of data set [17]: Hepatotoxicity in Balb/c mouse infected with Trypanosoma cruzi MHOM/Pe/2011/Arequipa DTU 5 trypomastigotes assessed as decrease in total bilirubin level at 20 mg/kg, po once daily for 5 consecutive days starting from day 75 post infection measured on day 127 post infection relative to control. The format is toxicity, organism-based. The arrangement: scale not given: the % may be the effect or the level left. Conditions: in vivo.

The nature of data set [18]: Cardiotoxicity in Balb/c mouse infected with Trypanosoma cruzi MHOM/Pe/2011/Arequipa DTU 5 trypomastigotes assessed as change in serum LDH level at 20 mg/kg, po once daily for 5 consecutive days starting from day 75 post infection measured on day 81 post infection (reference value: 5951 U/L). To be noted: in vivo. The format is toxicity, organism-based.
Data set [19] is described as follows: Hepatotoxicity in Balb/c mouse infected with Trypanosoma cruzi MHOM/Pe/2011/Arequipa DTU 5 trypomastigotes assessed as increase in ratio of serum ALT to GPT level at 20 mg/kg, po once daily for 5 consecutive days starting from day 10 post infection measured on day 127 post infection by biochemical analysis relative to control. The format is toxicity, organism-based. To be noted: in vivo.

The subject of data set [20] is Trypanosoma cruzi. The data set is described as follows: Inhibition of Trypanosoma cruzi MHOM/Pe/2011/Arequipa DTU 5 epimastigotes Fe-SOD at 100 uM by UV-Visible spectrophotometric method relative to control.
Data set [21] can be described thus: Hepatotoxicity in Balb/c mouse infected with Trypanosoma cruzi MHOM/Pe/2011/Arequipa DTU 5 trypomastigotes assessed as decrease in ratio of serum AST to GOT level at 20 mg/kg, po once daily for 5 consecutive days starting from day 10 post infection measured on day 16 post infection relative to control. The format is toxicity, organism-based. The arrangement: scale not given: the % may be the effect or the level left. To be noted: in vivo.

Data set [22] has as its system Trypanosoma cruzi. Kind of data set: Inhibition of Trypanosoma cruzi MHOM/Pe/2011/Arequipa DTU 5 epimastigotes Fe-SOD at 50 uM by UV-Visible spectrophotometric method relative to control.

For the compound `Cl.Cl.Cl.NCCN(CCN)CCNCc1ccc2c(c1)Cc1ccccc1-2`, the Activity result was “<= 10%” in data set [1]; “<= 10%” in data set [3]; 0.2 mg/dL in data set [4]; “<= 10%” in [6]; 167 U/L in data set [11]. The outcome in data set [2], in [5], in data set [7], in data set [8], in [9] and in [10] was Active.
With `O=C(Cn1ccnc1[N+](=O)[O-])NCc1ccccc1` [BENZNIDAZOLE], the values for the Activity result in data set [12] and in [13] were “<= 20%” and “<= 10%”, respectively.
`Cl.Cl.Cl.Cl.Cl.Cl.c1ccc2nc(CNCCN(CCNCc3ccc4ccccc4n3)CCNCc3ccc4ccccc4n3)ccc2c1`: the Activity in data set [14] is 6679 U/L; in data set [15], 4.8 mg/dL; in [16] it was 751 U/L; in [17], “<= 10%”; in data set [18], 6679 U/L; in data set [19] it was “<= 30%”. The Activity result in data set [21] was “<= 10%”. The inhibition (in general, how much of the control response was suppressed) in data set [20] is 100%; in data set [22], 82%.
